Measured values reported in patent publication US9630922B2, “3-spiro-7-hydroxamic acid tetralins as HDAC inhibitors” (Forma Therapeutics, Inc., priority 2015, dated 2017).

Target: T1, HDAC6 (Homo sapiens, UniProt Q9UBN7)
T1 construct: Full length human recombinant HDAC6 protein was expressed in baculoviral system; made in house; host or cells: baculoviral system
T1 sequence (Q9UBN7 1-1215): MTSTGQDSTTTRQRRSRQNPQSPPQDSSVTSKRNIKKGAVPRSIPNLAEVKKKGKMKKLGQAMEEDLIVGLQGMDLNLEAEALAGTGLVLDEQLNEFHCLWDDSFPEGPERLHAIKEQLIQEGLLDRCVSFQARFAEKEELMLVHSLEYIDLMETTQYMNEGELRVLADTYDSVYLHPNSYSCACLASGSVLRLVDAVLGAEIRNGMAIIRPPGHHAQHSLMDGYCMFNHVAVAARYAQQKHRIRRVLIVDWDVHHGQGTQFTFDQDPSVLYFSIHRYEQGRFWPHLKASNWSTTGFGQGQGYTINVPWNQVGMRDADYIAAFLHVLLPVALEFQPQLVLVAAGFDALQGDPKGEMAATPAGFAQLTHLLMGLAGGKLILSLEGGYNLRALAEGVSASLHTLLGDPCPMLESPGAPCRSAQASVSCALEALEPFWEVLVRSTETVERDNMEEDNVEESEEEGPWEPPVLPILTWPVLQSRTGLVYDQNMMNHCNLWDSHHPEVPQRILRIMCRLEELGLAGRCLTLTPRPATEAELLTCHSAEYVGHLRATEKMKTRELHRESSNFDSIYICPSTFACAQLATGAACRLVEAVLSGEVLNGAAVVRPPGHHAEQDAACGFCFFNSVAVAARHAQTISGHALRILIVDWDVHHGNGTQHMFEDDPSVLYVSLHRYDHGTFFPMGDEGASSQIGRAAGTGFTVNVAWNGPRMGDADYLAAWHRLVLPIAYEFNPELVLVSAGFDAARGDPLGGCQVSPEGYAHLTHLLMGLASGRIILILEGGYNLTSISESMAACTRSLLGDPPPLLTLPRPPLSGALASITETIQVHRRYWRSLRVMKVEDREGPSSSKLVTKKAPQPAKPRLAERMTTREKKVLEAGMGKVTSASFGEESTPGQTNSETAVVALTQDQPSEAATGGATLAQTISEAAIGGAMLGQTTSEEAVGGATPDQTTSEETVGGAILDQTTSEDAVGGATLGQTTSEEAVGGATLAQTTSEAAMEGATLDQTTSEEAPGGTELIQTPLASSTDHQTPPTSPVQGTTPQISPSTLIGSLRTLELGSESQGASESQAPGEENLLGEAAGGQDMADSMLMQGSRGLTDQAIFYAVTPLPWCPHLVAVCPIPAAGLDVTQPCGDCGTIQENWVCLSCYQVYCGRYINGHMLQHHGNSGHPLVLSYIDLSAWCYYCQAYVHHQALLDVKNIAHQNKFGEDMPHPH
Experiment: In vitro Histone Deacetylase Assay (enzymatic HDAC6 electrophoretic mobility shift assay)
Assay type: biochemical
Settings: full length human recombinant HDAC6, 1 nM enzyme, 2 μM peptide substrate RHKK(Ac)-NH2, 25° C.; read-out: HDAC6 activity range
Description: The enzymatic HDAC6 assay was performed using electrophoretic mobility shift assay. Full length human recombinant HDAC6 protein was expressed in baculoviral system and purified by affinity chromatography. The enzymatic reactions were assembled in 384 well plates in a total volume of 25 μL in a reaction buffer composing: 100 mM HEPES, pH7.5, 25 mM KCl, 0.1% bovine serum albumin, 0.01% Triton X-100, 1% DMSO (from compounds) 2 μM of the fluorescently labeled peptide substrate and enzyme. The enzyme was added at a final concentration of 1 nM. The peptide substrate RHKK(Ac)—NH2 was used. The compounds were tested at 12 concentrations spaced by 3× dilution intervals. Negative control samples (0%-inhibition in the absence of inhibitor) and positive control samples (100%-inhibition) were assembled in replicates of four in each assay plate. The reactions were incubated at 25° C. and quenched by the addition of 45 μL of termination buffer (100 mM HEPES, pH 7.5, 0.01% Triton X-100, 0.05% SDS).
The terminated assay plates were analyzed on LabChip® 3000 microfluidic electrophoresis instrument (Perkin Elmer/Caliper Life Sciences). The fluorescence intensity of the electrophoretically separated de-acetylated product and substrate peptide was measured. Activity in each sample was determined as the product to sum ratio (PSR): P/(S+P), where P is the peak height of the product peptide and S is the peak height of the substrate peptide. Percent inhibition (Pinh) is determined using the following equation:
Pinh=(PSR0%−PSRinh)/(PSR0%−PSR100%)*100, where PSRinh is the product sum ratio in the presence of inhibitor, PSR0% is the average product sum ration in the absence of inhibitor and PSR100% is the average product sum ratio in 100%-inhibition control samples. The IC50 values of inhibitors were determined by fitting the %-inhibition curves with 4 parameter dose-response model using XLfit 4 software.
As set forth in Table-31, below, IC50 values are defined as follows: IC50≦0.1 μM (+++); IC50>0.1 μM and ≦0.5 μM (++); IC50>0.5 μM (+).

SMILES	IC50 [µM]
CC(C)c1ccc(N2CC[C@@]3(CCc4cc(C(=O)NO)ccc4C3)C2=O)cn1 [Compound I-101, (S)-N-hydroxy-1′-(6-isopropylpyridin-3-yl)-2′-oxo-3,4-dihydro-1H-spiro[naphthalene-2,3′-pyrrolidine]-6-carboxamide]	≤ 0.1
COc1ncccc1N1CC[C@@]2(CCc3cc(C(=O)NO)ccc3C2)C1=O [Compound I-146, (S)-N-hydroxy-1′-(2-methoxypyridin-3-yl)-2′-oxo-3,4-dihydro-1H-spiro[naphthalene-2,3′-pyrrolidine]-6-carboxamide]	≤ 0.1
Cc1ccccc1CN1CC[C@]2(CCc3cc(C(=O)NO)ccc3C2)C1=O [Compound I-38, (R)-N-hydroxy-1′-(2-methylbenzyl)-2′-oxo-3,4-dihydro-1H-spiro[naphthalene-2,3′-pyrrolidine]-6-carboxamide]	≤ 0.1
COc1ccc(CCN2CCC3(CCc4cc(C(=O)NO)ccc4C3)C2)cc1 (stereo not shown) [Compound I-2, N-hydroxy-1′-(4-methoxyphenethyl)-3,4-dihydro-1H-spiro[naphthalene-2,3′-pyrrolidine]-6-carboxamide]	0.1 to 0.5
Cc1cncc(N2CC[C@]3(CCc4cc(C(=O)NO)ccc4C3)C2=O)c1 [Compound I-135, (R)-N-hydroxy-1′-(5-methylpyridin-3-yl)-2′-oxo-3,4-dihydro-1H-spiro[naphthalene-2,3′-pyrrolidine]-6-carboxamide]	≤ 0.1
O=C(NO)c1ccc2c(c1)CC[C@]1(CCN(Cc3cccc(Cl)c3)C1=O)C2 [Compound I-54, (R)-1′-(3-chlorobenzyl)-N-hydroxy-2′-oxo-3,4-dihydro-1H-spiro[napthalene-2,3′-pyrrolidine]-6-carboxamide]	≤ 0.1
O=C(NO)c1ccc2c(c1)CC[C@@]1(CCN(Cc3cccc(Cl)c3)C1=O)C2 [Compound I-81, (S)-1′-[(3-chlorophenyl)methyl]-N-hydroxy-2′-oxo-3,4-dihydro-1H-spiro[naphthalene-2,3′-pyrrolidine]-6-carboxamide]	≤ 0.1
O=C(NO)c1ccc2c(c1)CC[C@@]1(CCN(c3ccc(Cl)cn3)C1=O)C2 [Compound I-130, (S)-1′-(5-chloropyridin-2-yl)-N-hydroxy-2′-oxo-3,4-dihydro-1H-spiro[naphthalene-2,3′-pyrrolidine]-6-carboxamide]	≤ 0.1
O=C(NO)c1ccc2c(c1)CC[C@]1(CCN(c3cccc(F)c3F)C1=O)C2 [Compound I-123, (R)-1′-(2,3-difluorophenyl)-N-hydroxy-2′-oxo-3,4-dihydro-1H-spiro[naphthalene-2,3′-pyrrolidine]-6-carboxamide]	≤ 0.1
CN1CC[C@]2(CCc3cc(C(=O)NO)ccc3C2)C1=O [Compound I-104, (R)-N-hydroxy-1′-methyl-2′-oxo-3,4-dihydro-1H-spiro[naphthalene-2,3′-pyrrolidine]-6-carboxamide]	≤ 0.1
O=C(NO)c1ccc2c(c1)CC[C@@]1(CCN(CC(=O)N3CCOCC3)C1=O)C2 [Compound I-71, (S)-N-hydroxy-1′-(2-morpholino-2-oxoethyl)-2′-oxo-3,4-dihydro-1H-spiro[naphthalene-2,3′-pyrrolidine]-6-carboxamide]	0.1 to 0.5
Cc1ncccc1N1CC[C@]2(CCc3cc(C(=O)NO)ccc3C2)C1=O [Compound I-131, (R)-N-hydroxy-1′-(2-methylpyridin-3-yl)-2′-oxo-3,4-dihydro-1H-spiro[naphthalene-2,3′-pyrrolidine]-6-carboxamide]	≤ 0.1
O=C(NO)c1ccc2c(c1)CCC1(CCN(C(=O)C3CCCCC3)CC1)O2 [II-3, 1′-(cyclohexanecarbonyl)-N-hydroxyspiro[chromane-2,4′-piperidine]-6-carboxamide]	> 0.5
O=C(NO)c1ccc2c(c1)CC[C@]1(CCN(Cc3ccccc3F)C1=O)C2 [Compound I-57, (R)-1′-(2-fluorobenzyl)-N-hydroxy-2′-oxo-3,4-dihydro-1H-spiro[naphthalene-2,3′-pyrrolidine]-6-carboxamide]	≤ 0.1
N#Cc1ccccc1N1CC[C@]2(CCc3cc(C(=O)NO)ccc3C2)C1=O [Compound I-175, (R)-1′-(2-cyanophenyl)-N-hydroxy-2′-oxo-3,4-dihydro-1H-spiro[naphthalene-2,3′-pyrrolidine]-6-carboxamide]	≤ 0.1
O=C(NO)c1ccc2c(c1)CCC1(CC(=O)N(c3ccccc3)C1)C2 (single isomer, unassigned) [Compound I-204]	≤ 0.1
COCCn1c(N2CC[C@]3(CCc4cc(C(=O)NO)ccc4C3)C2=O)nc2ccccc21 [Compound I-12, (R)-N-hydroxy-1′-(1-(2-methoxyethyl)-1H-benzo[d]imidazol-2-yl)-2′-oxo-3,4-dihydro-1H-spiro[naphthalene-2,3′-pyrrolidine]-6-carboxamide]	0.1 to 0.5
O=C(NO)c1ccc2c(c1)CCC1(CC(=O)N(CC3CCC3)C1)C2 (single isomer, unassigned) [Compound I-210]	≤ 0.1
O=C(NO)c1ccc2c(c1)CC[C@]1(CCN(c3ccc4c(c3)OCO4)C1=O)C2 [Compound I-91, (R)-1′-(benzo[d][1,3]dioxol-5-yl)-N-hydroxy-2′-oxo-3,4-dihydro-1H-spiro[naphthalene-2,3′-pyrrolidine]-6-carboxamide]	≤ 0.1
O=C(NO)c1ccc2c(c1)CC[C@@]1(CCN(c3cc(F)ccc3F)C1=O)C2 [Compound I-169, (S)-1′-(2,5-difluorophenyl)-N-hydroxy-2′-oxo-3,4-dihydro-1H-spiro[naphthalene-2,3′-pyrrolidine]-6-carboxamide]	≤ 0.1
O=C(NO)c1ccc2c(c1)CC[C@]1(CCN(Cc3ccccc3)C1=O)C2 [Compound I-50, (R)-1′-benzyl-N-hydroxy-2′-oxo-3,4-dihydro-1H-spiro[naphthalene-2,3′-pyrrolidine]-6-carboxamide]	≤ 0.1
O=C(NO)c1ccc2c(c1)CC[C@]1(CCN(Cc3ccc(Cl)cc3)C1=O)C2 [Compound I-55, (R)-1′-(4-chlorobenzyl)-N-hydroxy-2′-oxo-3,4-dihydro-1H-spiro[naphthalene-2,3′-pyrrolidine]-6-carboxamide]	≤ 0.1
COc1ccccc1N1CC[C@]2(CCc3cc(C(=O)NO)ccc3C2)C1=O [Compound I-111]	≤ 0.1
CC(C)n1c(CN2CC[C@]3(CCc4cc(C(=O)NO)ccc4C3)C2=O)nc2ccccc21 [Compound I-45]	≤ 0.1
O=C(NO)c1ccc2c(c1)CC[C@@]1(CCN(CC3COC3)C1=O)C2 [Compound I-122, (S)-N-hydroxy-1′-(oxetan-3-ylmethyl)-2′-oxo-3,4-dihydro-1H-spiro[naphthalene-2,3′-pyrrolidine]-6-carboxamide]	0.1 to 0.5
